Assay results: US9226939B2, “Histone inhibition” (THE AUSTRALIAN NATIONAL UNIVERSITY, priority 2010, dated 2016)

Legend:
calf thymus histones [1] = assay: Inhibition of histone killing of HMEC (flow cytometry, Calcein-AM/PI); type: cell-based; conditions: for inhibitory activity on histone toxicity (in words) / % histone killing ± SEM: HMEC; for inhibitory activity on histone toxicity (in words): Table 1 discussion; for % histone killing ± SEM: compounds at 50 μg/ml, calf thymus histones 400 μg/ml; for inhibition of cytotoxic effects of histones for HMEC: histones 400 μg/ml
Protocol: (§1) Different concentrations of calf thymus histones were initially assessed for their toxicity for human umbilical vein endothelial cells (HUVEC) and human microvascular endothelial cells (HMEC). Suspensions of HUVEC/HMEC in Medium199/20% fetal calf serum (FCS) were dispensed into each well of a 96 well plate (1×10^5 cells/well in 50 μl of medium). Calf thymus histones (50 μl/well in M199/20% FCS) were then added to give a final concentration of 100-800 μg/ml followed by 25 μl/well of Calcein-AM in PBS (final concentration 0.04 μM) and 25 propidium iodide (PI) in PBS (final concentration 2.5 μg/ml). Each 96 well plate was incubated at 37° C. for 60 min in a 5% CO2 incubator, placed on ice and the contents of each well analysed by flow cytometry for viable and dead cells. Viable cells were detected as Calcein-AM-bright and PI-dim and dead cells as Calcein-AM-dim and PI-bright. FIG. 1 depicts a typical viability assay comparing HUVEC cultured alone (9.15% dead, 78.6% viable) with HUVEC cultured for 60 min with 200 μg/ml of calf thymus histones (50.4% dead, 35.6% viable). The toxicity of calf thymus histones for HUVEC and HMEC is shown in detail in FIG. 2, with histone toxicity for HUVEC (FIG. 2A) and HMEC (FIG. 2B) being highly concentration dependent, although HMEC were more resistant to histone toxicity than HUVEC. Thus, at 100 μg/ml histones killed 15-20% of HUVEC but had no effect on HMEC viability, whereas at 800 μg/ml histones killed >85% of HUVEC and ˜55% of HMEC (FIG. 1). In subsequent inhibition experiments calf thymus histones were used at 200 μg/ml for HUVEC and 400 μg/ml for HMEC, these concentrations resulting in ˜50% killing of both populations of endothelial cells.
In inhibition experiments the inhibitor (final concentration ranging from 1.6-100 μg/ml) was mixed with calf thymus histones (final concentration 200 or 400 μg/ml) prior to the addition of HUVEC/HMEC, Calcein-AM and PI to each well.
Using HMEC as the endothelial cell target similar inhibitory effects of maltotriose sulfate (FIG. 6) and the other sulfated oligosaccharides (Table 1) on histone toxicity was observed. In fact, a more detailed analysis of the inhibitory activity of a range of polyanions on histone toxicity, using HMEC as the target endothelial cell, is shown in Table 1.

[2] = test system: lipopolysaccharide (LPS)-induced mouse model of sepsis; assay: LPS-induced mouse model of sepsis; type: in vivo
Protocol: A study was conducted to assess in vivo efficacy of test articles 1 (maltotriose sulfate; TA1), 2 (cellobiose sulfate; TA2), and 3 (heparin; TA3) in a lipopolysaccharide (LPS)-induced mouse model of sepsis. Endotoxemia was induced by intraperitoneal (i.p.) injection with LPS on day 1. Test articles were co-administered i.p. on day 1, and then dosed daily i.p. for an additional 2 days.

radiolabelled histones = assay: Blockade of radiolabelled histone accumulation in rabbit lungs (gamma scintigraphy); type: in vivo; conditions: 15 mg/kg intravenously 15 minutes before radiolabel
calf thymus histones [3] = assay: Inhibition of histone cytotoxicity for HUVEC (flow cytometry, Calcein-AM/PI); type: cell-based; conditions: inhibitor 1.6-100 μg/ml; histones 200 μg/ml
Protocol: as §1, with “Thus, at 100 μg/ml histones killed 15-20% of HUVEC but had no effect on HMEC viability, whereas at 800 μg/ml histones killed >85% of HUVEC and ˜55% of HMEC (FIG. 1). In subsequent inhibition experiments calf thymus histones were used at 200 μg/ml for HUVEC and 400 μg/ml for HMEC, these concentrations resulting in ˜50% killing of both populations of endothelial cells.” left out

[4] = 15 mg/kg i.p. daily x3, LPS 50 mg/kg
[5] = 15 mg/kg i.p. daily x3, with LPS
[6] = 100 mg/kg i.p. daily x3, with LPS

## O=S(=O)(O)OC[C@H]1O[C@@](COS(=O)(=O)O)(O[C@H]2O[C@H](COS(=O)(=O)O)[C@@H](OS(=O)(=O)O)[C@H](OS(=O)(=O)O)[C@H]2OS(=O)(=O)O)[C@@H](OS(=O)(=O)O)[C@@H]1OS(=O)(=O)O [Sucrose octasulfate, reference compound]
Calf thymus histones [1]
  inhibitory activity on histone toxicity (in words): weaker inhibitors
  % histone killing ± SEM: 43.5 ± 4.0%

## Carboxylated β-cyclodextrin
Calf thymus histones [1]
  inhibitory activity on histone toxicity (in words): not
  % histone killing ± SEM: 105.8 ± 19.9%

## Heparin [reference compound]
Calf thymus histones [1]
  inhibitory activity on histone toxicity (in words): active
[2]; 1.1 mg/kg i.p. daily x3, LPS 50 mg/kg
  survival (Kaplan-Meier): no apparent change in the survival plot compared to the control
[2]; 1.1 mg/kg i.p. daily x3, with LPS
  tolerability: well tolerated

## Isomaltotriose sulfate [Isomaltotriose SO4]
Calf thymus histones [1]
  % histone killing ± SEM: 49.5 ± 5.4%

## Propanyl bis-gluconamide SO4
Calf thymus histones [1]
  inhibitory activity on histone toxicity (in words): some inhibitory activity
  % histone killing ± SEM: 27.8 ± 1.5%

## cellobiose sulfate [Cellobiose SO4]
Calf thymus histones [1]
  inhibitory activity on histone toxicity (in words): potent inhibitor
[2]; [4]
  survival (Kaplan-Meier): extended survival
[2]; [5]
  tolerability: well tolerated
[2]; 100 mg/kg i.p. daily x3, LPS 50 mg/kg
  survival (Kaplan-Meier): extended survival
[2]; [6]
  tolerability: well tolerated
Radiolabelled histones
  accumulation of radiolabelled histones in the lung: blocked

## low molecular weight heparin [reference compound]
Calf thymus histones [1]
  inhibitory activity on histone toxicity (in words): active

## maltose sulfate [Maltose SO4]
Calf thymus histones [3]
  inhibitory activity on histone cytotoxicity for HUVEC (in words): weak inhibitor
Calf thymus histones [1]
  inhibitory activity on histone toxicity (in words): weaker inhibitors
  % histone killing ± SEM: 77.1 ± 4.7%

## maltotriose sulfate [Maltotriose SO4]
Calf thymus histones [1]
  inhibitory activity on histone toxicity (in words): more active than sulfated isomaltotriose
Calf thymus histones [1]; maltotriose sulfate 25 μg/ml
  inhibition of cytotoxic effects of histones for HMEC: totally
Calf thymus histones [1]; maltotriose sulfate 100 μg/ml
  inhibition of cytotoxic effects of histones for HMEC: partially
[2]; [4]
  survival (Kaplan-Meier): extended survival
[2]; [5]
  tolerability: better tolerated
[2]; [6]
  tolerability: appeared to produce some toxicity (cluster of deaths) after the third dose

## panose sulfate [Panose SO4]
Calf thymus histones [1]
  inhibitory activity on histone toxicity (in words): more active than sulfated isomaltotriose

## raffinose sulfate [Raffinose SO4]
Calf thymus histones [1]
  inhibitory activity on histone toxicity (in words): more active than sulfated isomaltotriose

## sodium maltohexaose sulfate
Radiolabelled histones
  accumulation of radiolabelled histones in the lung: blocked

## sodium maltotetraose sulfate
Radiolabelled histones
  accumulation of radiolabelled histones in the lung: blocked

## β-cyclodextrin sulfate [β-cyclodextrin SO4]
Calf thymus histones [3]
  inhibitory activity on histone cytotoxicity for HUVEC (in words): almost as active as the linear maltotriose sulfate and maltopentaose sulfate
Calf thymus histones [1]
  inhibitory activity on histone toxicity (in words): active
